Data taken from paper PMC8879803, “Identification of a Common Pharmacophore for Binding to MMP2 and RGD Integrin: Towards a Multitarget Approach to Inhibit Cancer Angiogenesis and Metastasis” (Molecules, 2022).

Tested on: M21 human melanoma cells
Assay: Inhibition of integrin-mediated M21 cell adhesion to vitronectin
Assay type: cell-based
Conditions: 2 mM MnCl2, relative to vehicle (PBS)
Experimental: All the compounds but 17 were also tested for their integrin binding affinity towards M21 human melanoma cells that expresses high levels of αvβ3 heterodimer and using cilengitide as a control. Tests were performed in the presence of 2 mM MnCl2 to switch integrins of tumour cells into an activated form, and at final concentration of the compounds ranging from 30 μM to 0.3 μM (Table 3). […] We were pleased to find that compound 19 maintained a good inhibition potency at 0.3 μM as the lowest concentration used, thus confirming the capacity of this compound to inhibit the binding of M21 melanoma cells to vitronectin as an RGD-containing substrate.
The expression levels of αVβ3 integrin receptors on M21 melanoma cell lines were reported previously. Next, 96 wells plates were coated overnight, at 4 °C, with vitronectin (5 μg/mL in PBS) (V8379 Sigma). Plates were, then washed with phosphate buffered saline (PBS) solution and incubated at 37 °C for 1 h with PBS containing 1% bovine serum albumin (BSA). M21 cells were centrifugated (RT, at 700× g) in PBS, to remove serum. Cells were counted and suspended in serum-free medium at 5.0 × 10^5 cells/mL. Melanoma cell suspensions were pre-incubated with different amounts of the compounds. The final concentration ranged from 30 uM to 0.3 uM, using cilengitide as a control. The incubation was performed at 37 °C for 30 min to allow the ligand-receptor equilibrium to be reached. Next, cells were plated on VN substrata (5–6 × 10^4 cells/well) and incubated at 37 °C for 1 h. The assays were conducted in the presence of 2 mmol/L MnCl2 [26]. At the end of the incubation, plates were washed with PBS to remove the non-adherent cells, and 200 μL of 0.5% crystal violet solution in 20% methanol were added. After 2 h of static incubation at 4 °C, plates were examined at 540 nm in a counter ELX800 (Bio TEK Instruments, Winooski, VT, USA). Experiments were done in triplicate and repeated at least three times. The values are expressed as % inhibition of cell adhesion relative to cells exposed to vehicle alone (PBS).

c[RGDf(Me)V] [Cilengitide, reference compound]
Inhibition % of M21 cell adhesion to vitronectin (at 0.3 μM): 80%
Inhibition % of M21 cell adhesion to vitronectin (at 3 μM): 76%
Inhibition % of M21 cell adhesion to vitronectin (at 30 μM): 62%
